Here are results for four compounds from patent US8114442B2, “Transdermal pharmaceutical delivery compositions” (Queen Mary & Westfield College, priority 2008, dated 2012).

The conditions of data set [1]: healthy 70 kg-adult; cited from earlier work.
Data set [2] can be described thus: Pilot studies of local anaesthesia by pin-prick and thermal sensitivity testing. As to conditions: applied directly to the skin without NO-generating gel; within 20 minutes. The class given is in vivo, human. The source says:
The anaesthetic used in these initial studies was xylocalne as it was readily available in a pharmaceutical form for mixing.

Regarding `CCN(CC)CC(=O)Nc1c(C)cccc1C` [lidocaine], in data set [1], the “generally accepted safe dosage for topical anaesthesia” value (shortened to “generally accepted safe dosage”) is 750 mg. Regarding `CCCCNc1ccc(C(=O)OCCN(C)C)cc1` [tetracaine], the “generally accepted safe dosage” value in data set [1] is recorded as 50 mg. Regarding `CCN(CC)CC(=O)Nc1c(C)cccc1C` [xylocalne], the level of anaesthesia entry in data set [2] is reported as “failed to produce any discernible level of anaesthesia”. For the compound `COC(=O)[C@H]1[C@@H](OC(=O)c2ccccc2)C[C@@H]2CC[C@H]1N2C` [cocaine], the “generally accepted safe dosage” value in data set [1] was 200 mg.
